# Test results published in US7893024B2, “Enhancement of iron chelation therapy” (priority 2002, dated 2011).
# “And” between values parts separate entries of the source, which are not always exact repeats. Identical values can stand only once. Counter-ions that a name gives are not always drawn.
# Tests used:
# [1] = biological target: T1, ferritin (Aquarana catesbeiana, UniProt P07229); experiment: Iron release from mineralized recombinant ferritin monitored as formation of Fe(II)-bipyridyl (A522 nm), NADH/FMN reductant; format: biochemical; details: for increase in the initial rate of iron release: in combination with the chelator 2,2′-bipyridine
# T1 construct: made in house; host or cells: E. coli BL21-DE3-PLysS, vector pET-9a
# T1 sequence (P07229 2-176): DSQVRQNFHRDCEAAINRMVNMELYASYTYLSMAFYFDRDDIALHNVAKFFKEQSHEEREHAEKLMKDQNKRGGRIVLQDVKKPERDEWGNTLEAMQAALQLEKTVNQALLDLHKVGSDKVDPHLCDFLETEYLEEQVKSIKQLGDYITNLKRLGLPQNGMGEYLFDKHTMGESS
# Protocol: Briefly, as described in further detail below, recombinant ferritin was expressed, isolated, and mineralized. The mineralized, recombinant ferritin was incubated with a protein unfolding reagent (e.g., urea, guanidine, or Triton X-100). Chelator and reductant was then added to the reaction, and rates of iron release were monitored by UV absorbance detection of formation of Fe(II)-bipyridyl (A522 nm/sec).
# Production of recombinant ferritin. Recombinant ferritin was expressed using bullfrog sequences as the kinetic properties have been particularly favorable for study (Takagi H., et al. (1998) J. Biol. Chem. 273:18685)(18)(19)(20). Crystallographic studies of frog and human ferritins (Trikha, J., Theil, E. C. & Allewell, N. M. (1995) J Mol Biol 248, 949-67)(Hempstead, P. D., Yewdall, S. J., Fernie, A. R., Lawson, D. M., Artymiuk, P. J., Rice, D. W., Ford, G. C., & Harrison, P. M. (1997) J. Mol. Biol. 268, 424-448) show very similar structures and mechanisms (Bou-Abdallah, F., Papaefthymiou, G. C., Scheswohl, D. M., Stanga, S. D., Arosio, P. & Chasteen, N. D. (2002) Biochem J. 364, 57-63)(Hwang, J., Krebs, C., Huynh, B. H., Edmondson, D. E., Theil, E. C. & Penner-Hahn, J. E. (2000) Science 287, 122-125)(18). […] Two proteins were compared in the study: H-wild type and H-L134P, an “open” pore protein for which the crystal structure is known (Takagi H., et al. (1998) J. Biol. Chem. 273:18685). Sequences coding H-wild type and H-L134P ferritin were inserted into the vector pET-9a and expressed in E. coli BL21-DE3-PLysS (Stratagene®). The recombinant proteins were isolated as the 24-subunit assembly without Fe (<0.5/subunit) using methods previously described (20).
# Mineralization of ferritin. Recombinant ferritin was mineralized by adding a freshly prepared, acidic solution of FeSO4 (to minimize oxidation and hydrolysis) to apoferritin in buffer and incubating at room temperature for 1 hour and then overnight at 4° C., to complete hydrolysis of ferric mineral precursors (18). The final solution was 2.08 μM protein with 480 Fe/protein ([…]) in 0.1 M MOPS, 0.1M NaCl, pH=7. Sterile solutions of mineralized ferritin are stable for months to years.
# Measurement of iron release rates. Rates of Fe exit from ferritin (rates of dissolving the Fe biomineral) were monitored as formation of Fe(II)-bipyridyl (A522 nm/sec). The reaction was started by mixing an equal volume of mineralized ferritin with an equal volume of a solution of a NADH (5 mM), FMN (5 mM), and bipyridyl (5 mM) as first described by Jones and Walsh (21). The initial rates of iron chelation were calculated by taking the linear ascending part of the multiphasic reaction curve, averaged from 3 independent assays/protein preparations and 2-3 independent protein preparations.
# Triton X-100 and Urea. One set of reactions was treated with Triton X-100 at final concentrations of 0.1%, 1.0% or 10% (volume/volume). A second set of reactions was treated with urea at final concentrations of 1 mM, 10 mM, or 1M. A third set of reactions was treated with a control solution containing only buffer. All three sets of ferritin solutions were incubated further for 17-20 hours (i.e., overnight) at 4° C., then returned to room temperature. Iron release was initiated by the addition of 2.5 mM bipyridine, 2.5 mM NADH, and 2.5 mM FMN (final concentrations). The amount of iron released from ferritin was monitored at room temperature, over a period of one hour, by appearance of absorbance at 522 nm due to formation of the Fe(II)-bipyridyl complex.
# Urea, Guanidine HCl, and Triton X-100. The effects on iron release from ferritin of urea, guanidine hydrochloride, and Triton X-100 were studied by mixing solutions of the mineralized protein with a protein unfolding reagent and incubating at room temperature for 1 hour, followed by incubating overnight at 4° C. before adding reductant and chelator. […]
# [2] = tested on: HeLa cells; experiment: Cell viability by trypan blue exclusion test
# Protocol: HeLa cells, cultured in DMEM medium with 10% FBS, were incubated with the protein unfolding agents for 24 hours at 37° C. in 12-well plates. Cells were treated with trypsin, fresh medium was added and the cells were suspended in the fresh DMEM medium with 10% FBS. Cell suspensions were mixed 1:4 with trypan blue in 0.85% NaCl (weight/volume), incubated 5 minutes at room temperature, then examined by light microscopy in a hemocytometer chamber. Blue cells are scored as non-viable. For each condition, 1-3 analyses were performed.
# [3] = biological target: T1, ferritin; experiment: Iron release from ferritin with Desferal substituted for bipyridyl, Fe(III)-Desferal complex monitored at 430 nm; format: biochemical; details: H-Wild Type ferritin, in the absence of urea
# From the text: Desferal® (desferrioxamine mesylate or DFO), a chelator of Fe(III), is currently the drug of choice to remove Fe from patients with excess tissue iron accumulated from monthly transfusions to treat betaglobin gene mutations (Sickle Cell Disease and Beta Thalassemia). Positive selection has made the mutations relatively common (<10%) in areas of the world where malaria is endemic. […] In order to determine if unfolding ferritin pores increased Desferal® chelation of ferritin Fe, the chelator was substituted for bipyridyl in the mixture of NADH/FMN usually used. Formation of the Fe(III)— Desferal® complex was monitored at 430 nm, the absorbance maximum under the conditions used.
# [4] = tested on: ferritin; details: Crichton et al. 1980; cited from earlier work
# [5] = biological target: T1, ferritin; experiment: Fe uptake and mineralization / Fe(II) oxidation at the ferroxidase site (A650); format: biochemical, bullfrog
# Protocol: The temperature of the helix coil/transition in the pore was lower in both H-L134P protein and the wild type protein +1 mM urea (FIG. 3B) and is in the physiological range. […] However, the stability of the partially unfolded H-L 134P protein was lower, and loss of helix continued between 45° C. and 65° C. […] Rates were 1.9±0.1×10^−3, 2.93±0.1×10^−3 and 4.68±0.06×10^−3 mmoles/second for H-WT ferritin+1 mM urea, H-L134P ferritin and Wild Type H ferritin+1M urea, respectively (FIGS. 2A, B). The local nature of the helix/coil transition induced by 1 mM urea observed between 35° C. and 50° C. (FIG. 3B), is emphasized by the small effects on other ferritin functions such as Fe uptake and mineralization where the rates were 0.67±0.01 and 0.57±0.01 ΔA650s^−1 for zero and 10 mM urea, respectively, for 480 Fe/protein.
# [6] = biological target: T1, ferritin; experiment: Subdomain unfolding of ferritin by circular dichroism (helix/coil transition); set-up: species or system bullfrog
# Protocol: The effects of protein unfolding agents on subdomain unfolding of ferritin were monitored as changes in the Circular Dichroism (CD) spectra. Both wild type ferritin (H-WT) and the open pore mutant H-L134P were analyzed. Solutions of mineralized protein (2.08×10^−1 μM in 10 mM MOPS buffer, pH 7.0), were incubated with or without 1 mM urea overnight as described herein, and equilibrated for 10 minutes at the selected temperature before recording spectra between 300 nm to 200 nm. CD spectra recorded on a Pi-180 spectrophotometer (Applied Photophysics, Surrey, UK) over the temperature range of 5° C. to 65° C. Spectra were recorded in a cuvette with a 1 cm path length at protein concentrations of 2×10^−7 M, except for H-L134P, the protein with fully open pores in protein crystals, where the concentration was 4×10^−7 M to compensate for the lower signal at higher temperatures. Contributions of the solvent to the protein spectra were subtracted. Molar ellipticities at 220 nm were determined from the optical rotation, and the percent alpha helix content was calculated as described by Frére et al (Frere, V., Sourgen, F., Monnot, M., Troalen, F. & Fermandjian, S. (1995) J Biol Chem 270, 17502-17507) and Zhong and Johnson (Zhong, L. & Johnson, W. C. J. (1992) Proc Natl Acad Sci USA 89, 4462-4465). Curves were fit to the data using Sigmaplot 8.0. Fits and data matched with P<0.001. Data presented for H-L 134P ferritin are representative of two sets of measurements on one preparation and the data for the H-wild type protein, with and without urea, are representative of 3 independent protein preparations.
# [7] = 1M NaCl, MOPS buffer (data not shown)
# [8] = 1.0 mM to 1 M urea or guanidine
compound,measurement,setting,value
"[Cl-].[Na+] [NaCl, Sodium chloride, reference compound]",initial rate of Fe(II)-bipyridyl formation,[1]; [7],decreased
same,total amount of Fe chelated,[1]; [7],decreased
"Cl.N=C(N)N [guanidine, guanidine hydrochloride]",Average % nonviable cells,"[2]; 1 mM, 24 hours at 37° C.",6%
same,cell viability versus cells in normal medium,[2]; indicated concentrations (1 mM),No significant difference
same,effect on formation rate of Fe(II)-bipyridyl,[1]; Gd.HCl at 0.1 mM,increased rates significantly
same,effect on ferritin iron release (formation rate of Fe(II)-bipyridyl),[1]; Gd.HCl at 1 and 10 mM,comparable to the effect of 1 and 10 mM urea
"CC(=O)N(O)CCCCCNC(=O)CCC(=O)N(O)CCCCCNC(=O)CCC(=O)N(O)CCCCCN [Desferal®, desferrioxamine mesylate]",Fe that could be chelated,[3],10%
same,Fe removal from ferritin in solution,[4],removes little Fe
NC(N)=O [urea],rate of Fe uptake and mineralization,"[5]; 10 mM urea, 480 Fe/protein",0.57±0.01 ΔA650s^−1
same,"Fe(II) oxidation, a measure of Fe(II) entry and binding to the ferroxidase site",[5]; urea-treated ferritin,slightly inhibited
same,downshift of a helix/coil transition,[6]; [8],10 °C
same,helix/coil transition temperature after downshift,[6]; [8],43 °C
same,Tm (midpoint) of decrease in helix structure,"[6]; WT ferritin, 1 mM urea",41 °C
same,helix loss,"[6]; WT ferritin, 1 mM urea",~10%
same,increase of transition temperature in the absence of urea versus 1 mM urea,[6]; wild type ferritin,12 °C
same,time for removal of >95% of the Fe,[1]; 1 mM urea,33 min
same,time for removal of >95% of the Fe,[1]; 10 mM urea,13 min
same,increase over the initial rate without urea,[1]; 1 M urea,4.81 fold
same,time for removal of >95% of the Fe,[1]; 1 M urea,4 min
same,initial rate of Fe(II) bipyridyl formation,[1]; 2 M urea,1.02±0.11×10^−3 mmoles/second
same,time for removal of >95% of the Fe,[1]; 2 M urea,20 min
same,initial rate of Fe(II) bipyridyl formation,"[1]; H-WT ferritin, 1 mM urea",1.90±0.11×10^−3 mmole/second and 1.9±0.1×10^−3 mmole/second
same,initial rate of Fe(II) bipyridyl formation,"[1]; H-WT ferritin, 1 M urea",4.68±0.06×10^−3 mmoles/second
same,decrease in the time to release 50% of the total iron in ferritin,"[1]; chelator 2,2′-bipyridine, absorbance at 522 nm=0.4",10 fold
same,increase in the initial rate of iron release,[1],2-4 fold
same,most effective concentrations,"[1]; urea, enhancement of iron release",1 to 1000 mM
same,Fe(II)-bipyridyl formation in the absence of FMN/NADH,"[1]; urea-treated protein, no reductant",No Fe(II)-bipyridyl formed
Triton X-100,toxicity to cells,[2]; 1.0% and 10% (data not shown),toxic
same,most effective concentration,"[1]; Triton X-100, enhancement of iron release",1.0-10 % (volume/volume)
same,effect on ferritin iron release (formation rate of Fe(II)-bipyridyl),[1]; Triton X-100 at 1% and 10%,comparable to the effect of 1 and 10 mM urea
same,increase in the initial rate of iron release,[1],2-3 fold
